Holding throughout (type): cell-based
One assay has as its system L 29-APO-1 cells. Description: Inhibition of apoptosis induced by an anti-APO-1 antibody using DCI (MTT assay). Conditions: DCI 45 μM or 15 μM, 1 hour before anti-APO-1 antibody for 7 hours, FIG. 2B. The protocol:
FIG. 2B depicts the inhibition of apoptosis by DCI. L 29-APO-1 cells were incubated with DCI (●45μM, ▴15 μM) or without DCI (◯). After one hour, anti-APO-1 antibody was added in the amounts indicated in FIG. 2B and allowed to remain on the cells for 7 hours. The percentage cell death was determined by formazan production from diphenyltetrazolium salt (MTT assay).
For orientation: Tetrazolium assays rely on reduction of a dye to a coloured formazan, in cell work by metabolically active cells.

Assay [1] has as its system L 29-APO-1 cells and SKW 6.4 cells. Nature of the assay: Inhibition of apoptosis induced by an anti-APO-1 antibody using YVAD-CHO (DNA fragmentation, Hoechst dye 33342, FACS). Conditions: permeabilized L 29-APO-1 and SKW 6.4 cells, YVAD-CHO 30 minutes, then anti-APO-1 antibodies 1 μg/ml for 60 minutes; FIG. 2C. Here is the method:
FIG. 2C depicts the inhibition of apoptosis by YVAD-CHO.
L 29-APO-1 cells (◯) and SKW 6.4 cells (●) were permeabilized by a short hypotonic shock and incubated with the indicated concentrations of YVAD-CHO indicated in FIG. 2C for 30 minutes. The cells were incubated with anti-APO-1 antibodies (1 μg/ml) for 60 minutes. Apoptosis was determined by measuring a DNA fragmentation using the Hoechst dye 33342 (Molecular Probes Eugene, Oreg.). Data of specific cell death (cell death in the presence of an anti-APO-1 antibody minus cell death in the absence of such an antibody) was obtained from triple measurements by using an FACS Vantage flow cytometer. Spontaneous cell death in the absence of an anti-APO-1 antibody was less than 7%.

Another assay concerns SKW 6.4 cells. Nature of the assay: Inhibition of apoptosis induced in SKW 6.4 cells by anti-APO-1 antibody. The following applies: SKW 6.4 cells incubated with anti-APO-1 antibody (20 ng/ml) and varying amounts of inhibitor for 24 hours, FIG. 1. The protocol: FIG. 1 depicts the inhibition of apoptosis induced in SKW6.4 cells by means of anti-APO-1 antibodies (20 ng/ml) by human APO-1-Ig and anti-APO-1F(ab′)2, respectively.
SKW 6.4 cells (Oehm et al, supra) are apoptosis-positive cells, i.e. apoptosis can be induced therein, e.g. by binding an anti-APO-1 antibody.
SKW 6.4 cells were incubated with an anti-APO-1 antibody in the presence of varying amounts of the fusion protein of Example 1 (human APO-1-Ig) and of anti-APO-1-F(ab)2 (see above), respectively, for 24 hours. The inhibition of apoptosis was determined. See, FIG. 1.

This note sets out measurements from patent US20070207160A1, “Apoptosis inhibitors” (priority 1994, published 2007).

As to `O=c1oc(Cl)c(Cl)c2ccccc12` [DCI, 3,4-dichloroisocoumarin], the “inhibition of apoptosis induced by an anti-APO-1 antibody (percentage cell death, MTT assay)” value in the assay on L 29-APO-1 cells is recorded as “can be inhibited”. Turning to YVAD-CHO, the “inhibition of apoptosis induced by an anti-APO-1 antibody (specific cell death, DNA fragmentation)” value in assay [1] is “can be inhibited”.

B1: fused portion of Example 1: Fusion protein in which an extracellular APO-1 domain is fused via an antibody-hinge region to an Fc portion of a human antibody (protein)
chain: QVTDINSKGLELRKTVTTVETQNLEGLHHDGQFCHKPCPPGERKARDCTVNGDEPDCVPCQEGKEYTDKAHFSSKCRRCRLCDEGHGLEVEINCTRTQNTKCRCKPNFFCNSTVCEHCDPCTKCEHGIIKECTLTSNTKCKEEGSRSN
modifications: left off: a dimerising Fc or GST
notes: Fusion protein in which an extracellular APO-1 domain is fused via an antibody-hinge region to an Fc portion of a human antibody
Take B1: the results for the inhibition of apoptosis entry in the assay on SKW 6.4 cells and in the assay with SKW 6.4 cells (listed as fusion protein) were “strong apoptosis-inhibiting effect” and “especially strong”, respectively.
